One experiment deals with PI3Kalpha (Homo sapiens (Human), UniProt P42336). Description: HTRF PI3K biochemical assay, alpha isoform (selectivity versus PI3Kalpha). The conditions noted are these: relative ratio (PI3K-alpha IC50 value/PI3K-delta IC50 value); form screened: Neutral. From the text: (§1) HTRF PI3K Biochemical Assay to Measure Intrinsic Potency of Compound Inhibitors
(§2) The PI3-Kinase biochemical assays were developed to measure the intrinsic potency and compound dependent inhibition of the alpha, beta, delta, and gamma PI3K isoform enzymes.
(§3) This assay was developed and further optimized from a kit produced by Upstate (Millipore catalog #33-047) and has been configured for HTS (high throughput screening) and SAR screening. Briefly, this procedure exploits the exquisite specificity and high affinity binding of enzyme reaction substrate phosphatidyl(3,4,5)triphosphate (PIP3) to the GRP1 pleckstrin homology (PH) domain to generate the signal. In the absence of PIP3, an HTRF (Homogeneous Time-Resolved Fluorescence energy transfer) complex is formed consisting of europium (Eu)-labeled anti-GST, GSTtagged GRP1-PH domain, biotin-PIP3 and streptavidin conjugated APC. The native PIP3 produced by PI3-Kinase activity disrupts in a competitive manner the biotin-PIP3 from the PH domain, resulting in the loss of energy transfer (HTRF complex) and a decrease in the signal. The format of this assay is the same for all 4 isoforms of PI3K; the differences lie in the concentration of enzyme used to achieve robust assay window. The alpha, beta, and delta assays are run at 0.5, 1, and 0.3 nM enzymes and the gamma assay is run at 5 nM enzyme. The ATP concentration is 100 uM in the alpha, beta, and delta assays and 50 uM ATP in the gamma assay. All reactions are run at 5 uM PIP2.
(§4) Compounds are serially diluted (3-fold in 100% DMSO) across a 384-well polypropylene source plated from column 3 to column 12 and column 13 to column 22, to yield 10 concentration dose response for each test compound. Columns 1, 2, 23 and 24 contain either only DMSO or pharmacological known control inhibitor. Once titrations are made, 2.5 nL of the compounds on 384 well plates are reformatted and transferred by acoustic dispense in quadruplicates to a 1536 assay plate (Greiner) to assay across all four PI3K isoform enzymes.
(§5) The PI3-Kinase biochemical assay was optimized using the HTRF kit provided by Upstate (Millipore). The assay kit contains six reagents: 1) 4× Reaction Buffer; 2) native PIP2 (substrate); 3) Stop (EDTA); 4) Detection Mix A (Streptavidin-APC); 5) Detection Mix B (Eu-labeled Anti-GST plus GST-tagged PH-domain); 6) Detection Mix C. In addition, the following items were obtained or purchased; PI3Kinase (alpha 14-602, beta 14-603, gamma 14-558 and delta 14-604 from Upstate; Millipore), dithiothreitol (Sigma, D-5545), Adenosine-5′ triphosphate (InVitrogen, Cat#AS001A), native PIP3 (PI(3,4,5)P3, diC8, H^+, CELLSIGNALS, INC. Cat #907) DMSO (Sigma, 472301).
PI3Kinase Reaction Buffer is prepared by dilution the stock 1:4 with de-ionized water. DTT, PIP2 and Biotin-PIP3 were added to 1536 assay plate at a final concentration of 5 mM, […] on the day of use. Enzyme addition and compound pre-incubation are initiated by the addition of 1.25 ul of PI3K (at twice its final concentration) in the 1× reaction buffer to all wells using a BioRaptor. Plates are incubated at RT for 15 minutes. Reactions are initiated by addition of 1.25 ul of 2× substrate solution (PIP2 and ATP in 1× reaction buffer) using BioRaptor. Plates are incubated in humidified chamber at RT for one hour. Reactions are quenched by addition of 0.625 uL of stop solution to all wells using the BioRaptor. The quenched reactions are then processed to detect product formation by adding 0.625 uL of Detection Solution to all wells using the BioRaptor (Detection mix C, Detection Mix A, and Detection Mix B combined together in an 18:1:1 ratio prepared 2 hours prior to use). Following a one hour incubation in the dark, the HTRF signal is measured on the Envision plate reader set for 330 nm excitation and dual emission detection at […]. […]
In general terms: TR-FRET usually uses a lanthanide donor and a delayed reading to cut background.

The next experiment concerns the target PI3Kdelta (Homo sapiens (Human), UniProt O00329). Description: HTRF PI3K biochemical assay, delta isoform. The conditions noted are these: 0.3 nM enzyme, 100 uM ATP, 5 uM PIP2, form screened: Neutral.
From the text: as §1, §2, §3, §4, §5
PI3Kinase Reaction Buffer is prepared by dilution the stock 1:4 with de-ionized water. DTT, PIP2 and Biotin-PIP3 were added to 1536 assay plate at a final concentration of 5 mM, […] on the day of use. Enzyme addition and compound pre-incubation are initiated by the addition of 1.25 ul of PI3K (at twice its final concentration) in the 1× reaction buffer to all wells using a BioRaptor. Plates are incubated at RT for 15 minutes. Reactions are initiated by addition of 1.25 ul of 2× substrate solution (PIP2 and ATP in 1× reaction buffer) using BioRaptor. Plates are incubated in humidified chamber at RT for one hour. Reactions are quenched by addition of 0.625 uL of stop solution to all wells using the BioRaptor. The quenched reactions are then processed to detect product formation by adding 0.625 uL of Detection Solution to all wells using the BioRaptor (Detection mix C, Detection Mix A, and Detection Mix B combined together in an 18:1:1 ratio prepared 2 hours prior to use). Following a one hour incubation in the dark, the HTRF signal is measured on the Envision plate reader set for 330 nm excitation and dual emission detection at 620 nM (Eu) and 665 nM (APC).

Data on 16 compounds can be found in US10221178B2, “Purine inhibitors of human phosphatidylinositol 3-kinase delta” (MERCK SHARP & DOHME CORP., priority 2015, dated 2019).

pIC50: −log10 of the molar value.

As a reminder, the pIC50 is the IC50 on a negative log10 scale, so that one unit is a factor of ten.

PI3Kalpha, sequence (P42336 whole entry, canonical isoform): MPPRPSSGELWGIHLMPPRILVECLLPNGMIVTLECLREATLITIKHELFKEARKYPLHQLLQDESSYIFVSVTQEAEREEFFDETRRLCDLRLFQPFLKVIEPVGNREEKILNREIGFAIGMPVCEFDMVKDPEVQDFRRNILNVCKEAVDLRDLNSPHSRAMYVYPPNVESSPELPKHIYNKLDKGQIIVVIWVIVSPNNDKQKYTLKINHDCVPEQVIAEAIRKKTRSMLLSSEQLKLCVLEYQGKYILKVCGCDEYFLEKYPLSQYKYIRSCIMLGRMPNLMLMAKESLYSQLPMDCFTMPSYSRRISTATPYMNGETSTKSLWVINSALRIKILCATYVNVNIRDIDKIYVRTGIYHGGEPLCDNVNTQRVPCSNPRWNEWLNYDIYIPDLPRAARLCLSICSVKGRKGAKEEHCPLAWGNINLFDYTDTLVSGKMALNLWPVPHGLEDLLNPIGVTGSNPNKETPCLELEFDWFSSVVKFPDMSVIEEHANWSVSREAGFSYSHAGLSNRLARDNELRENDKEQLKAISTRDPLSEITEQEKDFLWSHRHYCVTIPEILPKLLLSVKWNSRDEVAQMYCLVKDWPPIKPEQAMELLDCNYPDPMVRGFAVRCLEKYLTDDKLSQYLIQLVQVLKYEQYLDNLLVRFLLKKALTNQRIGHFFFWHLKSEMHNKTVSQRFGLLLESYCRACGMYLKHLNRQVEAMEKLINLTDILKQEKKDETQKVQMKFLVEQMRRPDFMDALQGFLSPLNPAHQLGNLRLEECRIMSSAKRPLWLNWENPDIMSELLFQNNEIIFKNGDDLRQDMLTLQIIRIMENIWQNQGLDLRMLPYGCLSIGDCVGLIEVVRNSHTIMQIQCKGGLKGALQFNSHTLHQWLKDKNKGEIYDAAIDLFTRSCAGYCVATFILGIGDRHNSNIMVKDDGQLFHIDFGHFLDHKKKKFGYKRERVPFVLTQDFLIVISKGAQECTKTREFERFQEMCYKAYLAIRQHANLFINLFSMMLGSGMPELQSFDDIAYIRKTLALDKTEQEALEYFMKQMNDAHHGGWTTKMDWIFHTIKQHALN
PI3Kalpha, sequence (P27986 whole entry partner, canonical isoform): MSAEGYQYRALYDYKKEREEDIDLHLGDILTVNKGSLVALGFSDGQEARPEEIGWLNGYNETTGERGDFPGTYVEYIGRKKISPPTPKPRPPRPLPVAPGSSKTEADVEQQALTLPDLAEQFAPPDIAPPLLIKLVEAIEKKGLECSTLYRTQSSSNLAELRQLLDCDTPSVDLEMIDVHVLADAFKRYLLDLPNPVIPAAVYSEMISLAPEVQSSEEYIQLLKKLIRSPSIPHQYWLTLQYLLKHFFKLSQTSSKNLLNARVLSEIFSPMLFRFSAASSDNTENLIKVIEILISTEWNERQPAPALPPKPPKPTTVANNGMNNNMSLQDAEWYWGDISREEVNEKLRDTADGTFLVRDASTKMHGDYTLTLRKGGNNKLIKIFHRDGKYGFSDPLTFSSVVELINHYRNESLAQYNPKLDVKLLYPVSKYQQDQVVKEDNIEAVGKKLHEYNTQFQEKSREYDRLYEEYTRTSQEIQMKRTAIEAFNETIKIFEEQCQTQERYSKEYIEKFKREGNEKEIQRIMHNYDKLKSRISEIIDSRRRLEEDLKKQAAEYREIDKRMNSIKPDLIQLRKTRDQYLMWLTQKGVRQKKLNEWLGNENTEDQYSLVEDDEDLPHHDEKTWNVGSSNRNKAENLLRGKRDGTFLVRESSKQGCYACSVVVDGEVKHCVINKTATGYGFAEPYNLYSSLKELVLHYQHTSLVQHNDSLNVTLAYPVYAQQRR
PI3Kdelta, sequence (O00329 whole entry, canonical isoform): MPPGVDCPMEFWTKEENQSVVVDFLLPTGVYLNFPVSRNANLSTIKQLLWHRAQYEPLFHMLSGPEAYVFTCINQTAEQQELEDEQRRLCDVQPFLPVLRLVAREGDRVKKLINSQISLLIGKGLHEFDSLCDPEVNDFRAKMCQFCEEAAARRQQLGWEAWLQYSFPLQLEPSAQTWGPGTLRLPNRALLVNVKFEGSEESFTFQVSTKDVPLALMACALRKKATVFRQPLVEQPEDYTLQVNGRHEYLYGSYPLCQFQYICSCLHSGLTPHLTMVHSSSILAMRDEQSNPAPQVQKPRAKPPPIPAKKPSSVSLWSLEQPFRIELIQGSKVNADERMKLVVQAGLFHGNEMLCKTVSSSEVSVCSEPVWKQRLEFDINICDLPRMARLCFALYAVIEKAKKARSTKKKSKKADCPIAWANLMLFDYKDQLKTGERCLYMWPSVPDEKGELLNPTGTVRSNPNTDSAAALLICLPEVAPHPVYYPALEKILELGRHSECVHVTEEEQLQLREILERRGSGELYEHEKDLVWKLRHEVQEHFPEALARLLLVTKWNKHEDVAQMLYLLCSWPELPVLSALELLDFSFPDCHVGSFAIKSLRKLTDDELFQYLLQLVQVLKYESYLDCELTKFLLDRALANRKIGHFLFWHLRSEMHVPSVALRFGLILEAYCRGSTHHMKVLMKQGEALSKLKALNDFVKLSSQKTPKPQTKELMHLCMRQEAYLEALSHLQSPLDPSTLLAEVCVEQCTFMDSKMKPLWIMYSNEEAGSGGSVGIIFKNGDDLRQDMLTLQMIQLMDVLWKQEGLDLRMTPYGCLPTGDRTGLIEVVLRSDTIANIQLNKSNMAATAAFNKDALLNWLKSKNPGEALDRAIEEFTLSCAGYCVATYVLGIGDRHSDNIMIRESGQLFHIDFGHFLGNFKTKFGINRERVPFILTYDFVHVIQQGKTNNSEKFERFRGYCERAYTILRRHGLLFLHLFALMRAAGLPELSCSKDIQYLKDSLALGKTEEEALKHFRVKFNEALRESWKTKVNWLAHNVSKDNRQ
PI3Kdelta, sequence (P27986 whole entry partner, canonical isoform): as the sequence (P27986 whole entry partner, canonical isoform) above

As to `CCn1c(-c2cnc(C)nc2)nc2c(NC(C(=O)N3C[C@@H](C)O[C@@H](C)C3)C3CC3)ccnc21` (single isomer, unassigned) [Compound 3-4, N-{(R or S)-1-cyclopropyl-2-[(cis)-2,6-dimethylmorpholin-4-yl]-2-oxoethyl}-3-ethyl-2-(2-methylpyrimidin-5-yl)-3H-imidazo[4,5-b]pyridin-7-amine], the “Selectivity versus PI3Kalpha” value at PI3Kalpha was above 10. On PI3Kdelta, the pIC50 is 8.28.

Regarding `CCn1c(-c2cnc(C)nc2)nc2c(N[C@H](C(=O)N3C[C@@H](C)O[C@@H](C)C3)C3CCCC3)ncnc21` [Compound 2-48, N-{(1S)-1-cyclopentyl-2-[(cis)-2,6-dimethylmorpholin-4-yl]-2-oxoethyl}-9-ethyl-8-(2-methylpyrimidin-5-yl)-9H-purin-6-amine], the “Selectivity versus PI3Kalpha” value at PI3Kalpha is above 10. The compound also had a pIC50 against PI3Kdelta of 7.26.

For the compound `CCC(Oc1ncnc2c1nc(-c1cnn(CC)c1C)n2C)C(=O)N1CCOCC1` (racemic) [Compound 1-1, (R and S)-8-(1-ethyl-5-methyl-1H-pyrazol-4-yl)-9-methyl-6-[1-(morpholin-4-ylcarbonyl)propoxy]-9H-purine], the “Selectivity versus PI3Kalpha” value at PI3Kalpha is recorded as above 10. For the same compound, the pIC50 against PI3Kdelta is 6.49.

On to `CC[C@H](Nc1ncnc2c1nc(-c1ccc(C(F)(F)F)nc1)n2CC)C(=O)N1C[C@@H](C)O[C@@H](C)C1` [Compound 2-7, N-[(1S)-1-{[(cis)-2,6-dimethylmorpholin-4-yl]carbonyl}propyl]-9-ethyl-8-[6-(trifluoromethyl)pyridin-3-yl]-9H-purin-6-amine], for which the “Selectivity versus PI3Kalpha” value at PI3Kalpha is recorded as above 10. The pIC50 on PI3Kdelta was 8.55.

In the case of `CCn1c(-c2cnc(C)nc2)nc2c(N[C@H](C(=O)N3C[C@@H](C)O[C@@H](C)C3)[C@@H](C)OC)ccnc21` [Compound 3-3, N-[(1S,2R)-1-{[(cis)-2,6-dimethylmorpholin-4-yl]carbonyl}-2-methoxypropyl]-3-ethyl-2-(2-methylpyrimidin-5-yl)-3H-imidazo[4,5-b]pyridin-7-amine], at PI3Kalpha, the “Selectivity versus PI3Kalpha” value is above 10. In addition, the negative-log IC50 (pIC50) on PI3Kdelta is 8.07.

As for `CCn1ncc(-c2nc3c(N[C@@H](Cc4ccccc4)C(=O)N4CCOCC4)ncnc3n2C)c1C` [Compound 2-2, N-[(1S)-1-benzyl-2-morpholin-4-yl-2-oxoethyl]-8-(1-ethyl-5-methyl-1H-pyrazol-4-yl)-9-methyl-9H-purin-6-amine], the “Selectivity versus PI3Kalpha” value on PI3Kalpha is listed as above 10. In addition, the pIC50 on PI3Kdelta was 7.23.

With `CCn1c(-c2cnc(C)nc2)nc2c(N[C@@H](C)CC(=O)N3C[C@@H](C)O[C@@H](C)C3)ncnc21` [Compound 2-53, N-{(1S)-3-[(cis)-2,6-dimethylmorpholin-4-yl]-1-methyl-3-oxopropyl}-9-ethyl-8-(2-methylpyrimidin-5-yl)-9H-purin-6-amine], the “Selectivity versus PI3Kalpha” value on PI3Kalpha is reported as above 10. In addition, the pIC50 at PI3Kdelta was 7.43.

As for `CC[C@H](Nc1ncnc2c1nc(-c1cnc(C)nc1)n2CC)C(=O)N1CC2(CCCC2)C1` [Compound 2-21, N-[(1S)-1-(2-azaspiro[3.4]oct-2-ylcarbonyl)propyl]-9-ethyl-8-(2-methylpyrimidin-5-yl)-9H-purin-6-amine], at PI3Kalpha, the “Selectivity versus PI3Kalpha” value is above 10. The same compound had a pIC50 against PI3Kdelta of 7.85.

With `CC[C@H](Nc1ncnc2c1nc(-c1cnc(C)nc1)n2CC)C(=O)N1CC(=O)N(C)C(C)C1` (single isomer, unassigned) [Compound 4-5, (S or R)-4-[(2S)-2-{[9-ethyl-8-(2-methylpyrimidin-5-yl)-9H-purin-6-yl]amino}butanoyl]-1,6-dimethylpiperazin-2-one], at PI3Kalpha, the “Selectivity versus PI3Kalpha” value is given as above 10. The pIC50 at PI3Kdelta is 8.21.

As to `CCn1c(-c2cnc(C)nc2)nc2c(N[C@H](C(=O)N3C[C@@H](C)O[C@@H](C)C3)C(C)(C)O)ncnc21` [Compound 2-50, (3S)-4-[(cis)-2,6-dimethylmorpholin-4-yl]-3-{[9-ethyl-8-(2-methylpyrimidin-5-yl)-9H-purin-6-yl]amino}-2-methyl-4-oxobutan-2-ol], the “Selectivity versus PI3Kalpha” value on PI3Kalpha was above 10. The pIC50 at PI3Kdelta was 8.06.

Turning to `CC[C@H](Nc1ncnc2c1nc(-c1cnc(C)nc1)n2CC)C(=O)N1CC[C@@H](F)C1` [Compound 2-16, 9-ethyl-N-[(1S)-1-{[(3R)-3-fluoropyrrolidin-1-yl]carbonyl}propyl]-8-(2-methylpyrimidin-5-yl)-9H-purin-6-amine], the “Selectivity versus PI3Kalpha” value on PI3Kalpha is reported as above 10. The same compound gave a pIC50 against PI3Kdelta of 6.95.

Consider `CC[C@H](Nc1ncnc2c1nc(-c1cnc(C)nc1)n2CC)C(=O)N1C[C@@H]2C[C@H]1CO2` [Compound 2-31, 9-ethyl-8-(2-methylpyrimidin-5-yl)-N-{(1S)-1-[(1S,4S)-2-oxa-5-azabicyclo[2.2.1]hept-5-ylcarbonyl]propyl}-9H-purin-6-amine], for which, at PI3Kalpha, the “Selectivity versus PI3Kalpha” value is listed as above 10. Moreover, on PI3Kdelta, the pIC50 is 7.43.

For the compound `CCn1c(-c2cnc(C)nc2)nc2c(N[C@H](C(=O)N3C[C@@H](C)O[C@@H](C)C3)[C@@H](C)OC)ncnc21` [Compound 2-52, N-[(1S,2R)-1-{[(cis)-2,6-dimethylmorpholin-4-yl]carbonyl}-2-methoxypropyl]-9-ethyl-8-(2-methylpyrimidin-5-yl)-9H-purin-6-amine], the “Selectivity versus PI3Kalpha” value at PI3Kalpha is reported as above 10. This compound gave a negative logarithm of the IC50 (pIC50) on PI3Kdelta of 8.43.

Turning to `CC[C@H](Nc1ncnc2c1nc(-c1cnc(C)nc1)n2CC)C(=O)N1CC2CCS(=O)(=O)C2C1` (mixture of isomers) [Compound 2-14, N-{(1S)-1-[((3a(R and S), 6a(R and S)-1,1-dioxidohexahydro-5H-thieno[2,3-c]pyrrol-5-yl)carbonyl]propyl}-9-ethyl-8-(2-methylpyrimidin-5-yl)-9H-purin-6-amine], on PI3Kalpha, the “Selectivity versus PI3Kalpha” value was above 10. This compound gave a pIC50 against PI3Kdelta of 8.15.

For `CCn1c(-c2cnc(C)nc2)nc2c(N[C@H](CC(=O)N3C[C@@H](C)O[C@@H](C)C3)c3ccccc3)ncnc21` [Compound 2-56, N-{(1R)-3-[(cis)-2,6-dimethylmorpholin-4-yl]-3-oxo-1-phenylpropyl}-9-ethyl-8-(2-methylpyrimidin-5-yl)-9H-purin-6-amine], the “Selectivity versus PI3Kalpha” value at PI3Kalpha is on record as above 10. Besides, the pIC50 against PI3Kdelta is 6.21.

For `CCC(Nc1ncnc2c1nc(-c1cnc(C)nc1)n2CC)C(=O)N1CCn2c(CC(C)C)nnc2C1` (single isomer, unassigned) [Compound 5-1, (S or R)-9-ethyl-N-(1-{[3-(2-methylpropyl)-5,6-dihydro[1,2,4]triazolo[4,3-a]pyrazin-7(8H)-yl]carbonyl}propyl)-8-(2-methylpyrimidin-5-yl)-9H-purin-6-amine], the “Selectivity versus PI3Kalpha” value on PI3Kalpha is above 10. Moreover, the pIC50 on PI3Kdelta is 7.42.
